Measurements reported in PubChem BioAssay (NCI).
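Values below derive from 48-hour exposures of cells grown in 96-well plates, with endpoints linearly interpolated between the two concentrations bracketing the appropriate inhibition level. The concentration for 50% growth inhibition is given as GI50. TGI denotes the concentration required for complete inhibition of growth.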

How the values were obtained:
Assay in all cases: growth of human tumour cells (NCI), 48 h
SNB-19 CNS = tested on: SNB-19 CNS
BT-549 breast = tested on: BT-549 breast
HOP-62 NSCLC = tested on: HOP-62 NSCLC
SNB-75 CNS = tested on: SNB-75 CNS
HT29 colon = tested on: HT29 colon
M14 melanoma = tested on: M14 melanoma
DU-145 prostate = tested on: DU-145 prostate
HS 578T breast = tested on: HS 578T breast
HCT-15 colon = tested on: HCT-15 colon
MALME-3M melanoma = tested on: MALME-3M melanoma

| Compound | GI50 (SNB-19 CNS) [µM] | TGI (SNB-19 CNS) [µM] | GI50 (BT-549 breast) [µM] | TGI (BT-549 breast) [µM] | GI50 (HOP-62 NSCLC) [µM] | TGI (HOP-62 NSCLC) [µM] | GI50 (SNB-75 CNS) [µM] | TGI (SNB-75 CNS) [µM] | GI50 (HT29 colon) [µM] | TGI (HT29 colon) [µM] | GI50 (M14 melanoma) [µM] | TGI (M14 melanoma) [µM] | GI50 (DU-145 prostate) [µM] | TGI (DU-145 prostate) [µM] | GI50 (HS 578T breast) [µM] | TGI (HS 578T breast) [µM] | GI50 (HCT-15 colon) [µM] | TGI (HCT-15 colon) [µM] | GI50 (MALME-3M melanoma) [µM] | TGI (MALME-3M melanoma) [µM] |
| --- | --- | --- | --- | --- | --- | --- | --- | --- | --- | --- | --- | --- | --- | --- | --- | --- | --- | --- | --- | --- |
| CN(Cc1ccc(F)cc1)c1ccc(CO)c(Cl)c1 | 38.3 | > 100 | 12.3 | 39.9 | 5.13 | > 87.6 | 18.4 | 89.5 | 8.38 | 67.1 | 23.3 | > 76.9 | 29.1 | > 100 | 27.4 | 97.3 | 18.3 | > 100 | 24.5 | 71.9 |
| COc1ccc(-c2c(C#N)c(N)nc(N3CCOCC3)c2C#N)cc1 | 21.8 | > 100 | 20.9 | > 100 | 14.8 | 70.4 | 13.5 | 60.7 | 26.6 | > 100 | 22.6 | 72.8 | 27.3 | > 100 | 17.5 | 64.4 | 18.8 | 62.4 | 11.7 | 54.7 |
| Nc1c(C(=O)c2cccc(C#CCN3CCCCC3)c2)cnn1-c1ccc(F)cc1 | > 25 | > 25 | > 13.3 | > 25 | > 25 | > 25 | > 25 | > 25 | > 17.7 | > 25 | > 25 | > 25 | > 25 | > 25 | > 25 | > 25 | > 22.5 | > 25 | > 25 | > 25 |
| CCCCCCCCCc1ccc(OCCOCCOCCOCCOCCOCCOCCOCCOCCO)cc1 | 0.617 | 2.73 | 0.59 | 1.61 | 0.412 | 1.05 | 0.881 | 2.48 | 0.685 | 1.98 | 0.892 | 2.13 | 1.24 | 4.65 | 1.17 | 9.03 | 0.761 | 1.84 | 0.646 | 1.63 |
| O=[N+]([O-])c1cc([As](Br)c2ccc(O)c([N+](=O)[O-])c2)ccc1O | – | 3.72 | – | 3.84 | – | 4.87 | – | 3.62 | – | 25 | – | 4.33 | – | 4.59 | – | 5.93 | – | > 20.8 | – | 2.38 |
| CCSc1ccc([C@@H]2[C@@H](O)C(=O)N2c2cc(OC)c(OC)c(OC)c2)cc1 | < 0.01 | > 100 | 0.0264 | 0.503 | < 0.0125 | 32.5 | < 0.011 | 65.1 | < 0.0155 | 11.5 | < 0.01 | 15.8 | 0.0252 | > 50.3 | < 0.01 | > 69.2 | < 0.0109 | > 44.3 | 15.8 | 50.4 |
| COc1ccc2c(c1)CN([C@@H](C)[C@H]1CC[C@H]3[C@@H]4CC[C@H]5C[C@@H](O)CC[C@]5(C)[C@H]4CC[C@]13C)CO2 | – | 4.1 | – | 14.4 | – | 4 | – | 4.94 | – | 3.63 | – | 3.54 | – | 13.7 | – | 4.14 | – | 3.75 | – | 3.47 |
| CCCc1nc(Cl)nc(Cl)c1Cl | – | 2.57 | – | 0.0764 | – | 2.44 | – | 6 | – | 1.56 | – | 1.13 | – | 9.93 | – | 8.46 | – | 3.15 | – | 2.46 |
| COc1ccc(-c2cnnn2-c2nonc2-n2cccc2)cc1OC | 13.2 | > 100 | 4.06 | > 100 | 5.21 | > 100 | 4.19 | 39.2 | 3.31 | > 100 | 3.28 | > 100 | 7.95 | > 100 | 4.55 | 75.7 | 2.38 | > 100 | 3.86 | > 100 |
| C=C1C(=O)O[C@H]2[C@H]1CC/C(COC(=O)N[C@H]1C[C@H](O[C@H]3C[C@](O)(C(=O)CO)Cc4c(O)c5c(c(O)c43)C(=O)c3c(OC)cccc3C5=O)O[C@@H](C)[C@H]1O)=C\CC[C@@]1(C)O[C@@H]21 | 13.2 | > 50 | 2.4 | 9.24 | 22.7 | > 50 | 6.97 | 24.1 | 4.48 | 22 | 8.36 | 22.5 | 12.1 | > 50 | 9.93 | 34 | > 50 | > 50 | 0.879 | 1.9 |
| COc1ccc2c(c1)C(=O)/C(=C/c1cccc(OCC(=O)Nc3nc(C)c(C)s3)c1)O2 | 12.2 | 25.7 | 2.37 | 7.63 | 0.0107 | 0.0238 | 0.0115 | 0.037 | 0.0302 | 0.111 | 0.187 | 0.426 | 0.121 | 0.67 | 2.94 | – | 1.34 | 2.98 | 0.322 | 1.03 |
| CCn1cc(/C=C2\Oc3cc(OCC#N)ccc3C2=O)c2cc(OC)ccc21 | 0.385 | > 69.2 | 0.229 | 20.3 | 0.622 | > 46.6 | 0.527 | – | 0.134 | > 100 | 0.119 | > 100 | 0.44 | > 62 | 0.267 | > 28.8 | 0.153 | > 100 | – | > 70.7 |
| COc1ccc(-c2nc(-c3nc4cc(Cl)c(F)cc4[nH]3)c3ccccn23)cc1 | 8.34 | > 100 | 4.91 | > 100 | 19.8 | > 100 | 5.31 | > 100 | 4.26 | > 100 | 5.15 | > 100 | 6.58 | > 100 | 12.2 | > 100 | 5.72 | > 100 | 20 | > 100 |
